Measurements published in US10323019B2, “Pyrazolylaminobenzimidazole derivatives as JAK inhibitors” (Eli Lilly and Company, priority 2016, dated 2019).
Where two headings read alike, the source gives them in different places.

How the values were obtained:
JAK1 [1] = target: T1, JAK1 (Homo sapiens (Human), UniProt P23458); experiment: JAK LanthaScreen Kinase Assay (TR-FRET), JAK1 in vitro enzyme assay; type: biochemical; details: 20.0 μM ATP
Protocol: (§1) The JAK LanthaScreen™ Kinase Assay (Invitrogen) is used to determine the ability of test compounds to inhibit JAK1, JAK2, and JAK3 kinase activity. These are TR-FRET assay formats that use long-lifetime terbium labeled antibody as the donor species and GFP-STAT1 as the acceptor species. Use the TR-FRET ratio to monitor JAK kinase activity where an increase in phosphorylation of the GFP-STAT1 results in an increase in the TR-FRET ratio. Perform the kinase reaction using a 12.5 μl reaction volume in shallow black 384-well Proxiplate®. Add reagents to obtain final reaction conditions of […], 1.76 mM Triton X-100, ATP (20.0 μM for JAK1 and JAK3 or 5 μM for JAK2) enzyme assays, 10.0 mM MgCl2, 1 mM EGTA and 0.01% Brij-35, […] GFP-STAT1, 14 nM JAK1 enzyme for JAK1, 1.0 nM for JAK2 or 2.5 nM for JAK3 enzyme assays, and 4% DMSO and serial dilutions of test compound (diluted 1:3 from 20,000 to 1 nM). Following ATP/GFP-STAT1 addition, centrifuge the assay plates for 1 minute at 1000 revolutions per minute (RPM). Allow the plates to incubate at RT for 60 minutes and then add 12.5 μl of a stopping buffer containing 20 mM EDTA, 2 nM Terbium-anti-phosphorylated Signal Transducers and Activators of Transcription [phosphorylation Tyrosine 701 amino acid] […] Use ACTIVITYBASE® 4.0 to fit the percent inhibition and ten-point compound concentration data to a four-parameter logistic equation.

JAK3 = JAK3 (Homo sapiens (Human), UniProt P52333); experiment: JAK LanthaScreen Kinase Assay (TR-FRET), JAK3 in vitro enzyme assay; type: biochemical; details: 20.0 μM ATP
JAK3, sequence (P52333 whole entry): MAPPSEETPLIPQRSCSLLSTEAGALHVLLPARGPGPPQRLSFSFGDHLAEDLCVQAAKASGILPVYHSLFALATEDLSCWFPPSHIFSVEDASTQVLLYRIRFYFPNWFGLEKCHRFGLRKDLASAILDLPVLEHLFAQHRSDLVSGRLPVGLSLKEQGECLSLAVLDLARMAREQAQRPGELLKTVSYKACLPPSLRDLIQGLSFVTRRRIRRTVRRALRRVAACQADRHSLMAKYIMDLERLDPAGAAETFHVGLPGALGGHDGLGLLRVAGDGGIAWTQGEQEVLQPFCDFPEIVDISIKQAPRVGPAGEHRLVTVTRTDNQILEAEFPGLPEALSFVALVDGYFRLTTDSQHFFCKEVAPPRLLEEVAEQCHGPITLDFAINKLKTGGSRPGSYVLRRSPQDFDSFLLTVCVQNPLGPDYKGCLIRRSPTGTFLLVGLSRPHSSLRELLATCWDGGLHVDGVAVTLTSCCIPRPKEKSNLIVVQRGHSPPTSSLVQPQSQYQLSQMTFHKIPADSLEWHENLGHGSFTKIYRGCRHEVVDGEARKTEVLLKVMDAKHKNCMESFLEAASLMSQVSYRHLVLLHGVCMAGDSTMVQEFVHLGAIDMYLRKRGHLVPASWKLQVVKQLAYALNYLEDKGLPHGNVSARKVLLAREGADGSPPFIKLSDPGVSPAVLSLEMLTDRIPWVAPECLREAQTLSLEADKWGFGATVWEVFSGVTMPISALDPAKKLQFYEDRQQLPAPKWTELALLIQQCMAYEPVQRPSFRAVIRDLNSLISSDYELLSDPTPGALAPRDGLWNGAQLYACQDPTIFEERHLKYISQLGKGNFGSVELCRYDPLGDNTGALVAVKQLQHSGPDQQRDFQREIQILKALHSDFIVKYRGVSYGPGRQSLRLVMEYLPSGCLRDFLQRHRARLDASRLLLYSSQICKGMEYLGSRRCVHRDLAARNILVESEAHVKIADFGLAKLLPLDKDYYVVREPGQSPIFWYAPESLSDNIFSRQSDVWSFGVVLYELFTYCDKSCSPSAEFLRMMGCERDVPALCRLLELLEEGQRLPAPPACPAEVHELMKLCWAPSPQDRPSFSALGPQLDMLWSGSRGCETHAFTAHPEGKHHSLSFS
Protocol: as §1

JAK1 [2] = target: T1, JAK1; experiment: Human whole blood assay: pSTAT3 (JAK1) in lymphocytes, IL6 stimulated; type: cell-based; details: IL6, pSTAT3 in CD4+ lymphocytes
Excerpt: (§2) Human Whole Blood Assays: Determination of pSTAT3 (JAK1) and pSTAT5 (JAK2) in Lymphocytes and Monocytes
(§3) Human whole blood (HWB) assays were developed and validated to determine the JAK1 and JAK2 selectivity of test compounds.
(§4) Dilute the test compounds, 10 points, (1:3) in DMSO 100% and a step down in PBS+0.1% BSA. Use Tofacitinib as a reference compound in each plate, as well as a maximum signal (stimulated wells) and a minimum signal (no stimulated wells) in order to normalize data. Obtain a pool of HWB from 4 different healthy donors. Plate the blood in a 96 well plate using a Tecan Evo 96w and incubate with test compounds for 1 h at RT. After this time of incubation, stimulate HWB with both IL6 (206-IL, R&D System) and GM-CSF (PHC2015, Life Technologies) for 15 more minutes. Add a viability dye (65-0865, eBiosicience) (1:1000) using a Tecan Evo 96w (5×mix).
(§5) The final concentrations in the assay are the following: 100 (μM for compounds, 50 μM for Tofacitinib, 0.1 μg/mL IL6, 0.038 μg/mL GM-CSF and 1% DMSO. Lyse and fix HWB using a Lyse/fix buffer (558049, Becton Dickinson) by adding 900 μL of lysis buffer using Tecan Evo 96w (mix 10× high speed). Incubate HWB in bath at 37° C. for 10 minutes. Centrifuge HWB at 500 G, 8 min and discard supernatant. Add cold MeOH using a Tecan Exo 96w in order to permeabilize cells. Incubate blood cells on ice during 30 min. After this, wash cells 2× using Staining buffer (554656, Becton Dickinson), spin at 3000 rpm, 2 min. discard supernatant, and add the following antibodies: Anti-Human CD4 PE, 1:100 (12-0048, eBioscience), Anti-Human CD33 eFluor® 450, 1:50 (48-0337, eBioscience), Phospho-STAT5 (Tyr694) (C71E5) Rabbit mAb, 1:100 (Alexa Fluor® 488 Conjugate) (3939, Cell Signaling) and Phospho-STAT3 (Tyr705) (D3A7) XP™ Rabbit mAb 1:200, (Alexa Fluor® 647 Conjugate) (4324, Cell Signaling). Incubate the antibodies for 1 h in dark at RT, then wash cells 2× and read on Cytometer Macsquant (Miltenyi Biotec). Gate the data on CD4+ (lymphocytes) and CD4Low CD33Hi (monocytes), to measure the fluorescence intensity from cells expressing pSTAT3 and pSTAT5, respectively. Analyze the data using FlowJo v 10 and then normalize the median of fluorescence versus maximum and minimum signal to determine the IC50s. Use Graph Pad Prism 5™ to represent the dose response curves.

JAK1 [3] = target: JAK1 (Rattus norvegicus, UniProt G3V9W2); experiment: Rat PK/PD assay: rat whole blood ex vivo JAK1 activity (pSTAT3); type: in vivo; details: 30 mpk oral
JAK1 (Rattus norvegicus, UniProt G3V9W2), sequence (G3V9W2 1-1153): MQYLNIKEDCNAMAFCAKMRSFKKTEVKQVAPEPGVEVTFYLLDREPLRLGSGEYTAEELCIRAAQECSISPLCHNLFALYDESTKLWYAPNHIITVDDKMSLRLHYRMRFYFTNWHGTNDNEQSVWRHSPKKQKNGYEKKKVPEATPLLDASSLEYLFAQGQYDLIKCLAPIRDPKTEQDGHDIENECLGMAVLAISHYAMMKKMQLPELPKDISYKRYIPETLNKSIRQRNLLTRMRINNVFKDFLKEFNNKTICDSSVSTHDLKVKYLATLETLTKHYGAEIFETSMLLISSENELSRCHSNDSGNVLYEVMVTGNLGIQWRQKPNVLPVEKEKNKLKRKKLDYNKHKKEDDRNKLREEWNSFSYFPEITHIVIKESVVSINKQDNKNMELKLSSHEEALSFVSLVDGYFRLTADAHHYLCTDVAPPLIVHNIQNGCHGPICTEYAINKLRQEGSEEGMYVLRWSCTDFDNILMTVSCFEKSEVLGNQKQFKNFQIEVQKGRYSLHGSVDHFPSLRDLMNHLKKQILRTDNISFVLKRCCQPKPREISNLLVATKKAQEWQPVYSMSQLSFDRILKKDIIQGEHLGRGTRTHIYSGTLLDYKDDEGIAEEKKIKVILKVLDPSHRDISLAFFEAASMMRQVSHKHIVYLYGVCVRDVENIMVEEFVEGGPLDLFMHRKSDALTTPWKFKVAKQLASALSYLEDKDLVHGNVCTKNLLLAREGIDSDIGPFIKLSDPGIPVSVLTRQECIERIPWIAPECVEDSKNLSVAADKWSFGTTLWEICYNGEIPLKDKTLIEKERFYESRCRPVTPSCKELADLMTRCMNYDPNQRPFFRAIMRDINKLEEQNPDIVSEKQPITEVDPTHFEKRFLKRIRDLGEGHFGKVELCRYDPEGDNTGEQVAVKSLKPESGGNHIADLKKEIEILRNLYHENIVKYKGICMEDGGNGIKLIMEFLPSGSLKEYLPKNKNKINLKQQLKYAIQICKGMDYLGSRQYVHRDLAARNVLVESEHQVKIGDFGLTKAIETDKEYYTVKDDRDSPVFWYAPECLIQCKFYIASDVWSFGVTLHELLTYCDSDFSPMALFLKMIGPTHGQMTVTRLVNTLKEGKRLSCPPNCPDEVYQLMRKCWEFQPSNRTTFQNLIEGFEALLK
Protocol: (§6) Male Wistar rats, 265-285 grams (Charles River) were used for oral gavage dosing. Dose the animals (Oral gavage) at 1.82 mL/kg (0.5 mL per 275 grams). Formulate the compounds in 1% HEC vehicle containing 0.25% Tween 80 and 0.05% antifoam with 1.1 molar equivalent of methanesulfonic acid to form an in situ salt. Formulate compounds once per week, and store at 4° C. At various time points, obtain rat whole blood via tail vain bleeding in Multivette 600 μl EDTA blood collection tubes (cat#151671100PK100, Sarstedt Inc) and use for ex vivo JAK1 and JAK2 assay. Aliquot 100 ul of blood from each rat into a 96-well round bottom plate. Stimulate whole blood by recombinant IL-6 ([…], and recombinant mouse GM-CSF (cat#415-ML, lot#, R&D) for 12 min at rt. After cytokine stimulation, add whole blood into Lyse/fix (cat#558049, lot#, BD) in minitube rack; mix well 5×. Incubate 10 min at rt. Spin minitube rack at 600 g for 4 min. Aspirate with 12-channel manifold. Transfer contents of minitube rack to 96 well round-bottom plates. Spin down the cells at 3000 rpm for 1 min and discard the supernatant. Mix the cells in the well with 100 ul ice-cold MeOH and incubated on ice for 30 min. Add 150 ul PBS+2% FCS into each well and spin down at 3000 rpm, 2 min. Wash cells with 2× of 250 ul PBS+2% FCS. For cell surface and intracellular staining, mix all antibodies and add into each well and incubate 1 hr at rt in dark. The antibodies used for staining are as following: pSTAT3, Alexa Fluor 647 (cat#4324s, lot, Cell Signaling); pSTAT5, Alexa Fluor 488 (cat#3939s, lot#, Cell Signaling), anti-rat CD4, V450 (cat#561579, lot#. BD); anti-rat CD11b, Percp eFluor710 (cat#12-0110-82, lot#, eBioscience) After staining cells with Abs, wash the plates twice with PBS+2% FCS and finally re-suspend in the same 150 ul of solution. Assess cell viability by Viability Dye 780 (cat#65-0865-14, lot#, eBioscience). Perform the cytometry assay using FORTESSA.

[4] = tested on: paw swelling in Lewis rats; experiment: Rat collagen-induced arthritis (CIA) model; type: in vivo
Protocol: Rat Collagen-Induced Arthritis (CIA) Model
This protocol uses Lewis rats (weight 150-175 grams) from Charles River. On day 0, anesthetize rats with Isoflurane. On day 1, immunize intradermally with collagen emulsion in two sites on the lower lumbar region, above the base of the tail. Dose volume is a minimum of 0.4 mL per injection site. On day 8, anesthetize rats with Isoflurane and immunize intradermally with collagen emulsion in two sites on the lower lumbar region, above the base of the tail. Enroll rats into treatment groups on day 12, based on inflammation (redness and/or swelling) in their hind paws. Randomize animals for Treatment Phase based on ankle measurement values and body weight using block randomization allocation tool. Record ankle swelling on days 1, 8, and 11 and then three times per week following enrollment up to and including the day of necropsy. Dose compounds orally once a day starting on day 12 (after randomization) up to day 25. The compounds of Examples 6 and 7 were evaluated in the protocol essentially as described above.

JAK2 [5] = target: JAK2 (Rattus norvegicus (Rat), UniProt Q62689); experiment: Rat PK/PD assay: rat whole blood ex vivo JAK2 activity (pSTAT5); type: in vivo; details: 30 mpk oral
Protocol: as §6

JAK2 [6] = target: T2, JAK2 (Homo sapiens (Human), UniProt O60674); experiment: JAK LanthaScreen Kinase Assay (TR-FRET), JAK2 in vitro enzyme assay; type: biochemical; details: 5 μM ATP
T2 sequence (O60674 whole entry): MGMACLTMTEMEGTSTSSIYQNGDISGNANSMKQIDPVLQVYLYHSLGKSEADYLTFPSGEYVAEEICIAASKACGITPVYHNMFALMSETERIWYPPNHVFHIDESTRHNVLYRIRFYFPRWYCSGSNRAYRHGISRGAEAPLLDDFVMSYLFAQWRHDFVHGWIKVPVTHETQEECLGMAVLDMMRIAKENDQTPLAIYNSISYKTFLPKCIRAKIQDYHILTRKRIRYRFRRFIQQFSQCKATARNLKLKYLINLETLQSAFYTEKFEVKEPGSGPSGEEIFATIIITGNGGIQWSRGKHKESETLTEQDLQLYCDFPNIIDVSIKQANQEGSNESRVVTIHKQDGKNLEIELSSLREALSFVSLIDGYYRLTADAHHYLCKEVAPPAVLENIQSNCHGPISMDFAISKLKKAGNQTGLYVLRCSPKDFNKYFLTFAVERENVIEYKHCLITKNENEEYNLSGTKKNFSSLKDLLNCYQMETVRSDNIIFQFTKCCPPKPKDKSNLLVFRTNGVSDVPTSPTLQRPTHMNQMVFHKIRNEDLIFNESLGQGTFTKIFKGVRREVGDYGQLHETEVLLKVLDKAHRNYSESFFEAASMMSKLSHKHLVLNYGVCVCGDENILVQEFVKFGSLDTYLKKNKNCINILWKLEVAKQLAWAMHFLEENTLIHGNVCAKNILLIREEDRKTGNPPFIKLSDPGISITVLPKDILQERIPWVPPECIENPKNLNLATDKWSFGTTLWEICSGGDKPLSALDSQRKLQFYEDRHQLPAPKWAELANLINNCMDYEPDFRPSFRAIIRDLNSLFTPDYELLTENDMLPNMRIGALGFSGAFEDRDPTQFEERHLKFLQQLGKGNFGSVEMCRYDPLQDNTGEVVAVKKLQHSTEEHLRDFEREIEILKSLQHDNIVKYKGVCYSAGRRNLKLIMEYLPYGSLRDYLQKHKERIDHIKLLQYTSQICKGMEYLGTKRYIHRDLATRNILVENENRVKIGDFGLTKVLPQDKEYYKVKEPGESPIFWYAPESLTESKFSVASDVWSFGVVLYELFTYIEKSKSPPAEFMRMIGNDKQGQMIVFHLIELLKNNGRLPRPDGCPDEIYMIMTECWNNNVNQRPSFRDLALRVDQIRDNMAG
Protocol: as §1

JAK2 [7] = target: T2, JAK2; experiment: Human whole blood assay: pSTAT5 (JAK2) in monocytes, GM-CSF stimulated; type: cell-based; details: pSTAT5 in CD4Low CD33Hi monocytes
Excerpt: as §2, §3, §4, §5

[8] = tested on: paw swelling and bone mineral density loss in Lewis rats; experiment: Rat adjuvant-induced arthritis (AIA) model; type: in vivo; details: naïve rat as 100% inhibition
Protocol: Rat Adjuvant-Induced Arthritis (AIA) Model
The effects of compounds on polyarthritis inflammation and ankle joint bone erosion can be evaluated in a rat adjuvant-induced arthritis (AIA) model. Use Male Lewis rats with a mean body weight of 185 g for the study. Induce arthritis by intra-dermal injection located at the base of the tail with 100 μL of adjuvant suspended immunization emulsion oil. Randomize animals based on the mean paw thickness and body weight on day 10 into study groups with 8 rats in each group. Prepare compounds in 1% HEC/0.25% P80/0.05% AF in purified water and dose daily via oral gavage starting from day 11 post immunization for 14 days. Quantitate paw thickness with the caliper measurement on both ankles. Assess group differences using a one-way ANOVA followed by Dunnett's post-test for multiple comparisons against vehicle controls. The compound of Example 10 are evaluated in the protocol essentially as described above.

T1 sequence (P23458 whole entry): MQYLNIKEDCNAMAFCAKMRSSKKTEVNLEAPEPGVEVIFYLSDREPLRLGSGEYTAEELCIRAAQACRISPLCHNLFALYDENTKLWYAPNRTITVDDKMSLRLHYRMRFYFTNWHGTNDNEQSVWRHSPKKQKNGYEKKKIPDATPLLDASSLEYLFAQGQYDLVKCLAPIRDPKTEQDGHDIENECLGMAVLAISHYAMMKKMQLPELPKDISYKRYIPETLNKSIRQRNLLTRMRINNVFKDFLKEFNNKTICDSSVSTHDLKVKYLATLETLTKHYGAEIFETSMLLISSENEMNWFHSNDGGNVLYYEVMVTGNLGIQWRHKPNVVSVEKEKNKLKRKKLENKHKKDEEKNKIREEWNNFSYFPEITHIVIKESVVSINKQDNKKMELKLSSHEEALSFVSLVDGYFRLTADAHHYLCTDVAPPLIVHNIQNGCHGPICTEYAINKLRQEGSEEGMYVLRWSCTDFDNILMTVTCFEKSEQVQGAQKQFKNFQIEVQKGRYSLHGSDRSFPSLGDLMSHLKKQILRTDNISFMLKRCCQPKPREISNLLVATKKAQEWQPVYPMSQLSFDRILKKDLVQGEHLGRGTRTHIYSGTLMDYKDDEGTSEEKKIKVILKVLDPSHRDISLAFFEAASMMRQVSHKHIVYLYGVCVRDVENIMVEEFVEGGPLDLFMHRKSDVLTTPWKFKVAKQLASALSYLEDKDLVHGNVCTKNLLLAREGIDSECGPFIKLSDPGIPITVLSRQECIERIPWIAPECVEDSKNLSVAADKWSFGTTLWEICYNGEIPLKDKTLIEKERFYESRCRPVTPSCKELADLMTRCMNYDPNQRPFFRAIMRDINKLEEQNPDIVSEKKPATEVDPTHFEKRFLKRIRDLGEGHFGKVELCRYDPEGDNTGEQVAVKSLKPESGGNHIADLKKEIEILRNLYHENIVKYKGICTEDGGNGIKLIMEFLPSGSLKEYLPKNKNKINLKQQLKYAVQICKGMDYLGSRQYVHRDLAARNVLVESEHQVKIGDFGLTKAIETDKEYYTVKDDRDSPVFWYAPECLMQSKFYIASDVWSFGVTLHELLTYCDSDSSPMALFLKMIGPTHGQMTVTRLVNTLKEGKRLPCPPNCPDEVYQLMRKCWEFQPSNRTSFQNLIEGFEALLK

## CCn1nc(Nc2cc(OC3CCC(NC[C@@H](O)C(F)(F)F)CC3)cc3c2ncn3C)cc1C (stereo in doubt) [Example 7]
JAK1 [1]
  IC50: 5.43 ± 0.93 nM
JAK3
  IC50: 6160 ± 2020 nM
JAK1 [2]
  IC50: 4170 ± 1870 nM
JAK1 [3]; 2 hr post dosing
  JAK1 inhibition 2 hr post dosing: 70.7%
JAK1 [3]; 7 hr post dosing
  JAK1 inhibition 7 hr post dosing: 61.0%
[4]; 3 mpk oral once a day day 12 to 25, naïve rat as 100% inhibition
  Rat paw swelling % inhibition at 3 mpk: 0%
[4]; 10 mpk oral once a day day 12 to 25, naïve rat as 100% inhibition
  Rat paw swelling % inhibition at 10 mpk: 69%
[4]; 30 mpk oral once a day day 12 to 25, naïve rat as 100% inhibition
  Rat paw swelling % inhibition at 30 mpk: 73%

## Cc1cc(Nc2cc(O[C@H]3CC[C@@H](NC[C@@H](O)C(F)(F)F)CC3)cc3c2ncn3C)nn1C[C@H](C)O [Example 4, (2R)-1,1,1-Trifluoro-3-[(cis-4-{[4-({1-[(2S)-2-hydroxypropyl]-5-methyl-1H-pyrazol-3-yl}amino)-1-methyl-1H-benzimidazol-6-yl]oxy}cyclohexyl)amino]propan-2-ol]
JAK1 [3]; 2 hr post dosing, read-out: JAK1 inhibition 2 hr post dosing
  inhibition at 30 mg/kg: 72%
JAK1 [3]; 7 hr post dosing, read-out: JAK1 inhibition 7 hr post dosing
  inhibition at 30 mg/kg: 22.3%
JAK2 [5]; 2 hr post dosing, read-out: JAK2 inhibition 2 hr post dosing
  inhibition at 30 mg/kg: 22.9%
JAK2 [5]; 7 hr post dosing, read-out: JAK2 inhibition 7 hr post dosing
  inhibition at 30 mg/kg: 20.1%

## Cn1cnc2c(Nc3cc[nH]n3)cc(O[C@H]3CC[C@@](C)(NC[C@@H](O)C(F)(F)F)CC3)cc21 [Example 8, (2R)-1,1,1-Trifluoro-3-[(cis-1-methyl-4-{[1-methyl-4-(1H-pyrazol-3-ylamino)-1H-benzimidazol-6-yl]oxy}cyclohexyl)amino]propan-2-ol]
JAK1 [1]
  IC50: 1.91 ± 0.75 nM
JAK2 [6]
  IC50: 239 ± 150 nM
JAK3
  IC50: 1170 ± 470 nM
JAK1 [2]
  IC50: 3130 ± 1100 nM
JAK2 [7]
  IC50: 9630 ± 2520 nM

## Cc1cc(Nc2cc(O[C@H]3CC[C@@H](NC[C@@H](O)C(F)F)CC3)cc3c2ncn3C)nn1C [Example 9, (2R)-3-{[cis-4-({4-[(1,5-Dimethyl-1H-pyrazol-3-yl)amino]-1-methyl-1H-benzimidazol-6-yl}oxy)cyclohexyl]amino}-1,1-difluoropropan-2-ol]
JAK1 [1]
  IC50: 5.35 ± 0.23 nM
JAK2 [6]
  IC50: 767 ± 39 nM
JAK3
  IC50: 2140 ± 720 nM
JAK1 [2]
  IC50: 4530 ± 2090 nM
JAK2 [7]
  IC50: 16900 ± 4500 nM

## Cn1cnc2c(Nc3ccn(-c4ccccn4)n3)cc(O[C@H]3CC[C@@H](NC[C@@H](O)C(F)(F)F)CC3)cc21 [Example 10, (2R)-1,1,1-Trifluoro-3-({cis-4-[(1-methyl-4-{[1-(pyridin-2-yl)-1H-pyrazol-3-yl]amino}-1H-benzimidazol-6-yl)oxy]cyclohexyl}amino)propan-2-ol]
JAK1 [1]
  IC50: 1.49 ± 0.49 nM
JAK2 [6]
  IC50: 220 ± 120 nM
JAK3
  IC50: 660 ± 180 nM
JAK1 [2]
  IC50: 1290 ± 640 nM
JAK2 [7]
  IC50: 6860 ± 2130 nM
[8]; 3 mpk oral daily for 14 days
  % inhibition of BMD loss in paw: 39%
  % inhibition of paw swelling: 26%
[8]; 10 mpk oral daily for 14 days
  % inhibition of BMD loss in paw: 81%
  % inhibition of paw swelling: 63%
[8]; 30 mpk oral daily for 14 days
  % inhibition of BMD loss in paw: 84%
  % inhibition of paw swelling: 73%
